From publication PMC6387623 (Proteins, 2018)

Molecular target: RGS4 (single-cysteine RGS4 C95) (Rattus norvegicus, UniProt P49799, C71A/C132A/C148A/C183A/C197A/C204A)
Experiment: Flow cytometry protein interaction assay
Format: binding

RGS4 (single-cysteine RGS4 C95), sequence (P49799 52-205 C71A/C132A/C148A/C183A/C197A/C204A): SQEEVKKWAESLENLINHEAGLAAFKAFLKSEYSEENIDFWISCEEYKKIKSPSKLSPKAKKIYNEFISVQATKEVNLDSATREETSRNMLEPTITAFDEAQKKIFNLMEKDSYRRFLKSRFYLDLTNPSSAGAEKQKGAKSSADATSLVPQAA

## Cc1ccc(-n2sc(=O)n(Cc3ccc(F)cc3)c2=O)cc1 [compound 1, CCG-50014]
  IC50: ~4.5 µM
